Measured values as given in patent US20260132151A1, “NOVEL N,N-DIMETHYLTRYPTAMINE (DMT) DERIVATIVES AND USES THEREOF” (priority 2022, published 2026).
Entries after “also recorded” stand apart in the source; their conditions may differ. Like-named read-outs stand apart in the source and are kept apart here.

Legend:
[1] = target: T1, SERT (Homo sapiens, UniProt P31645); design: host or cells: human platelets (endogenous SERT); settings: read-out: uptake inhibition by DMT; human platelets expressing SERT; literature value; cited from earlier work
T1 sequence (P31645 whole entry): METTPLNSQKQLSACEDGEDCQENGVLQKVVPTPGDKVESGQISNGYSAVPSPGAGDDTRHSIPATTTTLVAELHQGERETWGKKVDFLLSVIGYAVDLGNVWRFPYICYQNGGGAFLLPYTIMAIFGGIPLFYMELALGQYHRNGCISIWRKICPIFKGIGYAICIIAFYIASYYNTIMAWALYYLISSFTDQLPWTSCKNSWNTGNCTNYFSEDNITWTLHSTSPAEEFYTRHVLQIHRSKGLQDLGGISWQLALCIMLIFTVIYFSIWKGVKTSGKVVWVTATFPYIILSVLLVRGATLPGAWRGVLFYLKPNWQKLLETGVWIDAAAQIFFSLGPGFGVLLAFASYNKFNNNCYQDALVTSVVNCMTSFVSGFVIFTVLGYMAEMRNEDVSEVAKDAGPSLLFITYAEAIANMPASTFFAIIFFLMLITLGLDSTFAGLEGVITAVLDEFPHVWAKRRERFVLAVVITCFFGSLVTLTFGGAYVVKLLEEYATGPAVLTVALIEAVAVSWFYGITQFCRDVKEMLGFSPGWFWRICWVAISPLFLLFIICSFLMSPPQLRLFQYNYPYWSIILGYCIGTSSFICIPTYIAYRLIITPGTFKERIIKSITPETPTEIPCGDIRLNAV

[2] = target: T1, SERT; assay: Uptake inhibition assay ([3H]5-HT) in HEK293-SERT cells; type: cell-based; design: expressed in transfected cells; settings: for IC50: HEK293-SERT cells
Method: (§1) Human embryonic kidney (HEK) 293 cells stably expressing human SERT were maintained in humidified atmosphere (37° C., 5% CO2) in Dulbecco's Modified Eagle Medium (DMEM), supplemented with 10% heat-inactivated fetal calf serum (FCS), streptomycin (100 μg×100 mL^−1) and penicillin (100 U×100 mL^−1). Geneticin (50 μg×mL^−1) was used as selection antibiotic.
One day before the experiment, HEK293-SERT cells were seeded onto poly-D-lysine coated 96 well plates at a density of 30,000 cells per well in a final volume of 200 μL. For uptake experiments, the cell culture medium was replaced with 300 μL Krebs-HEPES buffer (KHB; 25 mM HEPES, 120 mM NaCl, 5 mM KCl, 1.2 mM CaCl2, 1.2 mM MgSO4, and 5 mM D-glucose, pH 7.3). Then, the buffer was replaced with various concentrations of test compounds for 5 minutes; subsequent to that, 0.1 μM [^3H]5-HT in KHB was added to yield a total volume of 50 μL in the well. For determination of non-specific uptake, paroxetine was used (3 μM).
Uptake was terminated after 60 s by washing the cells with 200 μL ice-cold KHB. Subsequently, the cells were lysed with 200 μL Ultima Gold™ XR liquid scintillation cocktail, and the amount of tritium in the cells was measured with a Wallac 1450 MicroBeta® TriLux liquid scintillation counter. Monoamine uptake data were fitted by nonlinear regression, Vmax and Km values were calculated from Michaelis Menten's least-squares fit with GraphPad Prism (Prism 9.0.2, GraphPad Software, San Diego, CA, USA).
We tested Example 1, Example 4, Example 13 in both uptake inhibition and release assays, and Example 15 in uptake inhibition assays. Drugs were tested either as the undecomposed prodrug or after treatment with 0.5% HCl at 37° C. for 24 hours in order to simulate digestion of the prodrug by gastric acid inside the body after peroral administration. DMT was tested dissolved only in DMSO.

[3] = target: T1, SERT; assay: Release (efflux) assay in HEK293-SERT cells loaded with [3H]5-HT; type: cell-based; design: expressed in transfected cells; settings: Examples dissolved in HCl, DMT in DMSO, compared with pCA (full releaser)
Method: as §1
The day prior to the assay, stably expressing HEK293-SERT cells were seeded in a perfusion chamber of an IBIDI microfluidic chip (μ-Slide VI 0.5 Glass Bottom, ibidi GmbH). Chambers were previously coated with poly-D-lysine for 20 min at 37° C. and then cells were seeded at a density of approximately 1-10^6 cells×mL^−1.
For the release experiment, cells were loaded with radioactive substrate […] [^3H]5-HT for 20 min at 37° C. and then perfused with different solutions at constant flow rate (0.6 μL min^−1). […] The cells were flushed using sodium dodecyl sulfate (SDS) to retrieve the residual radioactivity (6 min). […]
Radioactivity was quantified with a beta-scintillation counter (PerkinElmer, Waltham, MA, USA). The released amount of tritiated substrate for each fraction was expressed as the amount of released tritium compared to the amount remaining in the cell at the end of the previous fraction. […]

[4] = type: physicochemical; settings: for stability of the prodrug (in words): 1% HCl, pH 7.4 and pH 8.0 compared; for release of DMT / conversion to DMT (in words): all tested pHs: 1% HCl, pH 7.4, pH 8.0; for degradation of the prodrug: essentially instantaneous, with liberation of DMT
Method: Four compounds (i.e., methyl carbamate [compound 8, Example 8], boc carbamate [compound 11, […]], pinacol boronic ester [compound 1, Example 1] and TFA-amide [compound 3, Example 3]) were tested for their stability in 1% hydrochloric acid (HCl) as well as in phosphate buffers (0.1 M) at pH 7.4 and pH 8.0, respectively. These conditions were selected to assess the chemical stability of these compounds at a pH corresponding to different physiological conditions. Dilute hydrochloric acid (pH 1) was used to mimic the low pH of gastric acid within the stomach, while potassium phosphate buffers of pH 7.4 and pH 8.0 were used to mimic conditions in human blood and small intestine, respectively.
4 mg of each test compound was diluted in 4 mL of either a 1% HCl solution or the respective phosphate buffer (0.1 M), resulting in a solution of 1 mg/mL each. Regarding the acidic testing with hydrochloric acid, 2 mL of aqueous test compound solutions were then added to 2 mL of 2% (v/v) in distilled water, yielding a final HCl concentration of […] (pH 0.5). Test solutions were incubated at 37° C. with constant stirring for approximately 21 hours. The concentrations of the parent compound were analyzed at different timepoints using LC/MS. The concentrations of the parent prodrug and released drug were expressed relative to the starting concentration of the parent prodrug.

[5] = after treatment with 0.5% HCl at 37° C. for 24 hours, read-out: Uptake inhibition, IC50 values, SERT
[6] = undecomposed compound dissolved in DMSO, no HCl pre-treatment, read-out: Uptake inhibition, IC50 values, SERT

SMILES	stability of the prodrug (in words) [4]	release of DMT / conversion to DMT (in words) ([4]; 37° C.)	IC50 [2, 5]	IC50 [2, 6]	further results
CN(C)CCc1c[nH]c2ccccc12 [DMT, N,N-Dimethyltryptamine]					IC50 [1]: ~10 µM; IC50 ([2]; Uptake inhibition, IC50 values, SERT, undecomposed compound dissolved in DMSO, no HCl pre-treatment): 12.3 µM; transporter-mediated efflux (release) via SERT [3]: almost full efficacious release
CN(C)CCc1c[nH]c2cccc(B3OC(C)(C)C(C)(C)O3)c12 [Example 1, N,N-dimethyl-2-(4-(4,4,5,5-tetramethyl-1,3,2-dioxaborolan-2-yl)-1H-indol-3-yl)ethan-1-amine]	maximum stability under acidic conditions	releasing DMT rapidly within minutes	13.6 µM	26.7 µM	
CN(C)CCc1cn(C(=O)C(F)(F)F)c2ccccc12 [Example 3, 1-(3-(2-(dimethylamino)ethyl)-1H-indol-1-yl)-2,2,2-trifluoroethan-1-one]	maximum stability under acidic conditions	releasing DMT rapidly within minutes			degradation of the prodrug ([4]; phosphate buffer (0.1 M) pH 7.4, 37° C.): 100%; degradation of the prodrug ([4]; phosphate buffer (0.1 M) pH 8.0, 37° C.): 100%
CN(C)CCc1cn(C(=O)C(C)(C)C)c2ccccc12 [Example 4, 1-(3-(2-(dimethylamino)ethyl)-1H-indol-1-yl)-2,2-dimethylpropan-1-one]			8.3 µM	~2.1 µM	transporter-mediated efflux (release) via SERT [3]: induces even less efflux; also recorded: yields a lower efflux compared to both DMT and Example 1
COC(=O)n1cc(CCN(C)C)c2ccccc21 [Example 8, methyl 3-(2-(dimethylamino)ethyl)-1H-indole-1-carboxylate]					release of DMT at pH 7.4 and pH 8.0 ([4]; phosphate buffers (0.1 M) pH 7.4 and pH 8.0, 37° C.): continuous release of DMT
CN(C)CCc1cn(C(=O)OC(C)(C)C)c2ccccc12 [Example 11, tert-butyl 3-(2-(dimethylamino)ethyl)-1H-indole-1-carboxylate]	significantly more stable under all tested conditions	Conversion to DMT proceeded efficiently throughout the entire experiment at all pHs			liberation of DMT / conversion under acidic conditions ([4]; 1% HCl solution (pH 1.0), 37° C., approximately 21 hours): remarkably fast release time of two hours
CN(C)CCc1cn(S(=O)(=O)C2CC2)c2ccccc12 [Example 13, 2-(1-(cyclopropylsulfonyl)-1H-indol-3-yl)-N,N-dimethylethan-1-amine]			22.2 µM	93.8 µM	interaction with the transporter without pre-treatment (in words) ([2]; uptake inhibition, no HCl pre-treatment (DMSO)): interaction with the transporter was scarce
